Data on 34 compounds can be found in patent US20140155389A1, “BICYCLIC INHIBITORS OF ALK” (ABBVIE INC., priority 2011, published 2014).

The target in this assay is T1, ALK (Homo sapiens, UniProt Q9UM73).
T1 construct: purchased Millipore
Nature of the assay: ALK kinase assay (HTRF). It counts as biochemical. Conditions: apparent Ki from IC50 by Cheng-Prusoff; ALK (Millipore) 3 nM or 4 nM, 50 μM ATP, 1 h at room temperature; read-out: HTRF_ALK Human - Ki.

The structures appear in SMILES notation. A value given as a limit tells only on which side of the number the result lay.

T1 sequence (Q9UM73 19-1620): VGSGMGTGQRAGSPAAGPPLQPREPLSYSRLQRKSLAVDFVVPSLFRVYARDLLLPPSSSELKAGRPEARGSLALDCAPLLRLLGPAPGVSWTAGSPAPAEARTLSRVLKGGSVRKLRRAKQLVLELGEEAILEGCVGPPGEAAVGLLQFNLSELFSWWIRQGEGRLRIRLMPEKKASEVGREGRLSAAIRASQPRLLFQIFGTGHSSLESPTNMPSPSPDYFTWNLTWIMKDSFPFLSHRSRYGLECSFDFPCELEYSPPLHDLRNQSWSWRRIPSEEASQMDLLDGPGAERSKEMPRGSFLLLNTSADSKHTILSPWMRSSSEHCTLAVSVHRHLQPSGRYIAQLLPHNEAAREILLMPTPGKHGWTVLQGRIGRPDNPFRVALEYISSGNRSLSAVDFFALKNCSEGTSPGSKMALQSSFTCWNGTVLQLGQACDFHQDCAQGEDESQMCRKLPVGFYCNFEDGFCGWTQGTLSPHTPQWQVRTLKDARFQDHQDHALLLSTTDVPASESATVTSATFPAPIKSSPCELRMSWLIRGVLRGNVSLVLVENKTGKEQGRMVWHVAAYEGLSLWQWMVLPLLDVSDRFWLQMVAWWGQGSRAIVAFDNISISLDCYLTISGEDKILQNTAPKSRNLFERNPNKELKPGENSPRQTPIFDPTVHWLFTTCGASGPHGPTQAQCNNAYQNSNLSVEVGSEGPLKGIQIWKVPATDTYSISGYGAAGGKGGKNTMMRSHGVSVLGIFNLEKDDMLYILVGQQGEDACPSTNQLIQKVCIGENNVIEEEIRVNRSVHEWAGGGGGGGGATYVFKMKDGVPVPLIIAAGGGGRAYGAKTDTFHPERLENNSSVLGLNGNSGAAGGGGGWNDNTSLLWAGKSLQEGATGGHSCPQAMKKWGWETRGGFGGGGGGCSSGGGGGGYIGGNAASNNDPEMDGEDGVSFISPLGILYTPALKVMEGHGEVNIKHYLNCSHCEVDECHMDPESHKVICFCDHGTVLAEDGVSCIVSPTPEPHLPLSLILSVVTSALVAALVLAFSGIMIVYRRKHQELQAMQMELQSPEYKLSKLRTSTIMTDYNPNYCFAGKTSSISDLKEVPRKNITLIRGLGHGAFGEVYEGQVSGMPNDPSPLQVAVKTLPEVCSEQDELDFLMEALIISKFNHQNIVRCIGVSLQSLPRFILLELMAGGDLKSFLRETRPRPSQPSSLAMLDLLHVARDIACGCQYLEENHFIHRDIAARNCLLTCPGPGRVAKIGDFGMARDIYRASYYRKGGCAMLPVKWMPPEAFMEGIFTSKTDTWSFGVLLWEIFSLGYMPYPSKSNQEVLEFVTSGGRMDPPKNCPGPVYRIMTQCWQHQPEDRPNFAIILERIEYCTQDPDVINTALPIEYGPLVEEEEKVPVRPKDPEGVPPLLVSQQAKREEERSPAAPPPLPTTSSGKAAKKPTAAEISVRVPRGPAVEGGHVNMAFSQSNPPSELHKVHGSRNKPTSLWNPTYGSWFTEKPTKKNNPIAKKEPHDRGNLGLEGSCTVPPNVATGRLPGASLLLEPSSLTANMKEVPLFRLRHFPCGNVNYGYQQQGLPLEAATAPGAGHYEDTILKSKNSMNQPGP

Consider `COc1cc(N2CCNCC2)ccc1Nc1nc(Nc2ccc(F)c(Cl)c2Cl)cc2cnnc(O)c12` [Example 67, 7-[(2,3-dichloro-4-fluorophenyl)amino]-5-{[2-methoxy-4-(piperazin-1-yl)phenyl]amino}pyrido[3,4-d]pyridazin-4-ol], for which the Ki was 2 nM.

For the compound `COc1cc(N2CCNCC2)ccc1Nc1cc(Nc2c(Cl)cccc2Cl)nc2cn[nH]c(=O)c12` [Example 68, 2-[(2,6-dichlorophenyl)amino]-4-{[2-methoxy-4-(piperazin-1-yl)phenyl]amino}pyrido[2,3-d]pyridazin-5(6H)-one], the Ki stood at 2 nM.

In the case of `Cc1c(Nc2nc(Cc3c(Cl)cccc3Cl)cc3cn[nH]c(=O)c23)ccc(N2CCNCC2)c1C` [Example 69, 7-(2,6-dichlorobenzyl)-5-{[2,3-dimethyl-4-(piperazin-1-yl)phenyl]amino}pyrido[3,4-d]pyridazin-4(3H)-one], the Ki turned out to be 1 nM.

`COc1cc(N2CCNCC2)ccc1Nc1cc(Cc2c(Cl)cccc2Cl)nc2cn[nH]c(=O)c12` [Example 70, 2-(2,6-dichlorobenzyl)-4-{[2-methoxy-4-(piperazin-1-yl)phenyl]amino}pyrido[2,3-d]pyridazin-5(6H)-one]: the Ki was found to be 1 nM.

As to `COc1cc(N2CCNCC2)ccc1Nc1nc(Nc2c(F)cc(F)cc2Cl)cc2cnnc(O)c12` [Example 71, 7-[(2-chloro-4,6-difluorophenyl)amino]-5-{[2-methoxy-4-(piperazin-1-yl)phenyl]amino}pyrido[3,4-d]pyridazin-4-ol], the Ki stood at 1 nM.

For the compound `COc1cc(N2CCNCC2)c(C)cc1Nc1nc(Cc2c(Cl)cccc2Cl)cc2cn[nH]c(=O)c12` [Example 72, 7-(2,6-dichlorobenzyl)-5-{[2-methoxy-5-methyl-4-(piperazin-1-yl)phenyl]amino}pyrido[3,4-d]pyridazin-4(3H)-one], the Ki is 12 nM.

As for `Cc1cc(Nc2nc(Cc3c(Cl)cccc3Cl)cc3cn[nH]c(=O)c23)c(F)cc1N1CCNCC1` [Example 73, 7-(2,6-dichlorobenzyl)-5-{[2-fluoro-5-methyl-4-(piperazin-1-yl)phenyl]amino}pyrido[3,4-d]pyridazin-4(3H)-one], the Ki amounted to 1 nM.

On to `COc1cc2c(cc1Nc1cc(Cc3c(Cl)cccc3Cl)cc3cn[nH]c(=O)c13)CNCC2` [Example 74, 6-(2,6-dichlorobenzyl)-8-[(6-methoxy-1,2,3,4-tetrahydroisoquinolin-7-yl)amino]phthalazin-1(2H)-one], for which the Ki stood at 4 nM.

In the case of `COc1cc(N2CCNCC2)ccc1Nc1nc(Oc2c(F)cccc2F)cc2cn[nH]c(=O)c12` [Example 75, 7-(2,6-difluorophenoxy)-5-{[2-methoxy-4-(piperazin-1-yl)phenyl]amino}pyrido[3,4-d]pyridazin-4(3H)-one], the Ki was 4 nM.

For `COc1cc(N2CCNCC2)ccc1Nc1nc(Oc2ccccc2F)cc2cnnc(O)c12` [Example 76, 7-(2-fluorophenoxy)-5-{[2-methoxy-4-(piperazin-1-yl)phenyl]amino}pyrido[3,4-d]pyridazin-4-ol], the Ki was 4 nM.

For the compound `COc1cc(N2CCNCC2)ccc1Nc1nc(Nc2ccc(Cl)c(Cl)c2Cl)cc2cn[nH]c(=O)c12` [Example 77, 5-{[2-methoxy-4-(piperazin-1-yl)phenyl]amino}-7-[(2,3,4-trichlorophenyl)amino]pyrido[3,4-d]pyridazin-4(3H)-one], the Ki came to 4 nM.

In the case of `COc1cc(N2CCNCC2)ccc1Nc1nc(Oc2cccc(F)c2F)cc2cnnc(O)c12` [Example 78, 7-(2,3-difluorophenoxy)-5-{[2-methoxy-4-(piperazin-1-yl)phenyl]amino}pyrido[3,4-d]pyridazin-4-ol], the Ki amounted to 4 nM.

Consider `COc1cc(N2CCNCC2)ccc1Nc1nc(Oc2cccc(Cl)c2Cl)cc2cn[nH]c(=O)c12` [Example 79, 7-(2,3-dichlorophenoxy)-5-{[2-methoxy-4-(piperazin-1-yl)phenyl]amino}pyrido[3,4-d]pyridazin-4(3H)-one], for which the Ki was found to be 5 nM.

Regarding `COc1cc(N2CCNCC2)ccc1Nc1nc(Oc2c(Cl)cc(F)cc2Cl)cc2cn[nH]c(=O)c12` [Example 80, 7-(2,6-dichloro-4-fluorophenoxy)-5-{[2-methoxy-4-(piperazin-1-yl)phenyl]amino}pyrido[3,4-d]pyridazin-4(3H)-one], the Ki is 1 nM.

In the case of `COc1cc(N2CCNCC2)ccc1Nc1nc(Oc2ccncc2Cl)cc2cn[nH]c(=O)c12` [Example 81, 7-[(3-chloropyridin-4-yl)oxy]-5-{[2-methoxy-4-(piperazin-1-yl)phenyl]amino}pyrido[3,4-d]pyridazin-4(3H)-one], the Ki is greater than 470 nM.

`COc1cc(N2CCNCC2)ccc1Nc1nc(Oc2cccc(C)c2C)cc2cnnc(O)c12` [Example 82, 7-(2,3-dimethylphenoxy)-5-{[2-methoxy-4-(piperazin-1-yl)phenyl]amino}pyrido[3,4-d]pyridazin-4-ol]: the Ki turned out to be 4 nM.

As to `COc1cc(N2CCNCC2)ccc1Nc1nc(Oc2ccncc2F)cc2cnnc(O)c12` [Example 83, 7-[(3-fluoropyridin-4-yl)oxy]-5-{[2-methoxy-4-(piperazin-1-yl)phenyl]amino}pyrido[3,4-d]pyridazin-4-ol], the Ki is greater than 470 nM.

On to `COc1cc(N2CCNCC2)ccc1Nc1nc(Oc2ccc(Cl)c(Cl)c2Cl)cc2cnnc(O)c12` [Example 84, 5-{[2-methoxy-4-(piperazin-1-yl)phenyl]amino}-7-(2,3,4-trichlorophenoxy)pyrido[3,4-d]pyridazin-4-ol], for which the Ki came out at 5 nM.

Consider `COc1cc(N2CCNCC2)ccc1Nc1nc(Oc2ccc(Cl)cc2Cl)cc2cn[nH]c(=O)c12` [Example 85, 7-(2,4-dichlorophenoxy)-5-{[2-methoxy-4-(piperazin-1-yl)phenyl]amino}pyrido[3,4-d]pyridazin-4(3H)-one], for which the Ki was 5 nM.

Turning to `COc1cc(N2CCNCC2)ccc1Nc1nc(N[C@H]2CC[C@H](O)CC2)cc2cnnc(O)c12` [Example 86, 7-[(trans-4-hydroxycyclohexyl)amino]-5-{[2-methoxy-4-(piperazin-1-yl)phenyl]amino}pyrido[3,4-d]pyridazin-4-ol], the Ki came out at 2 nM.

Turning to `COc1cc(N2CCNCC2)ccc1Nc1nc(OC2CCCC2)cc2cnnc(O)c12` [Example 87, 7-(cyclopentyloxy)-5-{[2-methoxy-4-(piperazin-1-yl)phenyl]amino}pyrido[3,4-d]pyridazin-4-ol], the Ki stood at 4 nM.

For `COc1cc2c(cc1Nc1nc(Cc3c(Cl)cccc3Cl)cc3cn[nH]c(=O)c13)CCNC2` [Example 88, 7-(2,6-dichlorobenzyl)-5-[(7-methoxy-1,2,3,4-tetrahydroisoquinolin-6-yl)amino]pyrido[3,4-d]pyridazin-4(3H)-one], the Ki came to 4 nM.

For `COc1cc(N2CCNCC2)ccc1Nc1cc(Oc2ccccc2Cl)nc2cn[nH]c(=O)c12` [Example 89, 2-(2-chlorophenoxy)-4-{[2-methoxy-4-(piperazin-1-yl)phenyl]amino}pyrido[2,3-d]pyridazin-5(6H)-one], the Ki was 15 nM.

As for `Oc1nncc2cc(N3CCC(F)CC3)nc(Nc3ccc(CN4CCCC4)cc3Cl)c12` [Example 90, 5-{[2-chloro-4-(pyrrolidin-1-ylmethyl)phenyl]amino}-7-(4-fluoropiperidin-1-yl)pyrido[3,4-d]pyridazin-4-ol], the Ki amounted to 7 nM.

On to `COc1cc2c(cc1Nc1cc(Cc3ccccc3Cl)nc3cnnc(O)c13)CNCC2` [Example 91, 2-(2-chlorobenzyl)-4-[(6-methoxy-1,2,3,4-tetrahydroisoquinolin-7-yl)amino]pyrido[2,3-d]pyridazin-5-ol], for which the Ki came out at 55 nM.

Turning to `COc1cc(CN2CCNCC2)ccc1Nc1cc(Cc2ccccc2Cl)nc2cn[nH]c(=O)c12` [Example 92, 2-(2-chlorobenzyl)-4-{[2-methoxy-4-(piperazin-1-ylmethyl)phenyl]amino}pyrido[2,3-d]pyridazin-5(6H)-one], the Ki came to 15 nM.

In the case of `Oc1nncc2cc(NCC3CC3)nc(Nc3ccc(CN4CCCC4)cc3Cl)c12` [Example 93, 5-{[2-chloro-4-(pyrrolidin-1-ylmethyl)phenyl]amino}-7-[(cyclopropylmethyl)amino]pyrido[3,4-d]pyridazin-4-ol], the Ki was 4 nM.

On to `COc1cc(CN2CCOCC2)ccc1Nc1cc(Cc2ccccc2Cl)nc2cnnc(O)c12` [Example 94, 2-(2-chlorobenzyl)-4-{[2-methoxy-4-(morpholin-4-ylmethyl)phenyl]amino}pyrido[2,3-d]pyridazin-5-ol], for which the Ki came out at 51 nM.

For `CCOc1cc(CN2CCCC2)ccc1Nc1nc(Oc2ccccc2Cl)cc2cn[nH]c(=O)c12` [Example 95, 7-(2-chlorophenoxy)-5-{[2-ethoxy-4-(pyrrolidin-1-ylmethyl)phenyl]amino}pyrido[3,4-d]pyridazin-4(3H)-one], the Ki came out at 138 nM.

For the compound `O=c1[nH]ncc2cc(N3CCC(O)CC3)nc(Nc3ccc(CN4CCCC4)cc3Cl)c12` [Example 96, 5-{[2-chloro-4-(pyrrolidin-1-ylmethyl)phenyl]amino}-7-(4-hydroxypiperidin-1-yl)pyrido[3,4-d]pyridazin-4(3H)-one], the Ki worked out at 9 nM.

Regarding `O=c1[nH]ncc2cc(N3CC(O)C3)nc(Nc3ccc(CN4CCCC4)cc3Cl)c12` [Example 97, 5-{[2-chloro-4-(pyrrolidin-1-ylmethyl)phenyl]amino}-7-(3-hydroxyazetidin-1-yl)pyrido[3,4-d]pyridazin-4(3H)-one], the Ki came out at 74 nM.

Take `COc1cc(C2CCNCC2)ccc1Nc1nc(Oc2ccccc2Cl)cc2cnnc(O)c12` [Example 98, 7-(2-chlorophenoxy)-5-{[2-methoxy-4-(piperidin-4-yl)phenyl]amino}pyrido[3,4-d]pyridazin-4-ol]: the Ki amounted to 9 nM.

On to `COc1cc(C2CCNCC2)ccc1Nc1nc(NCC2CC2)cc2cnnc(O)c12` [Example 99, 7-[(cyclopropylmethyl)amino]-5-{[2-methoxy-4-(piperidin-4-yl)phenyl]amino}pyrido[3,4-d]pyridazin-4-ol], for which the Ki came out at 6 nM.

On to `COc1cc(C2CCNCC2)ccc1Nc1cc(Cc2ccccc2Cl)nc2cn[nH]c(=O)c12` [Example 100, 2-(2-chlorobenzyl)-4-{[2-methoxy-4-(piperidin-4-yl)phenyl]amino}pyrido[2,3-d]pyridazin-5(6H)-one], for which the Ki was found to be 4 nM.
